What was measured:
Assay type in all cases: cell-based
[1] = test system: a variety of cancer cell lines; assay: Growth inhibition across the cancer cell line panel; settings: for activity against cancer cell lines, in words: text summary of Tables 1-3
Procedure: (§1) Activity Of 6-Methyloxamethyl Exemestane Compounds Against Cancer Cell Lines. Cancer-derived cell lines were used for the following growth inhibition assay. The ability of the compound of Formula (B) above and the compound of Formula (D) above to inhibit cancer-derived cell growth was compared to exemestane as a control.
(§2) Cell viability is determined using the MTS assay. This calorimetric procedure measures conversion of the MTS reagent (a tetrazoleum salt) to formazan by living cells. Formazan production is quantified by spectrophotometric measurement at 490 nm and is proportional to viable cell number. Cells are cultured and treated. Following treatment, 100 μl of growth medium is removed and cells incubated with 20 μl CellTiter 96® AQueous One Solution Reagent (1.9 mg/ml in PBS, pH 6.0) for 1-3 hours at 37° C. Absorbance (OD) values are measured using a μQuant microplate reader at a single wavelength of 490 nm.
(§3) Additional assays were performed to evaluate the growth-inhibiting activity of the compound of Formula (B) above and the compound of Formula (D) compared to exemestane as a control.

Capan-2 = assay: MTS cell growth inhibition assay, Capan-2; settings: Homo sapiens, Capan-2, Pancreas; for inhibition at 200 µM: read-out: Mean Percent Response at 200 μM (percent of cell growth inhibited); for IC50: mean of 2 independent trials
Procedure: as §1, §2, §3

Capan-1 = assay: MTS cell growth inhibition assay, Capan-1; settings: Homo sapiens, Capan-1, Pancreas; for inhibition at 200 µM: read-out: Mean Percent Response at 200 μM (percent of cell growth inhibited); for IC50: mean of 2 independent trials
Procedure: as §1, §2, §3

MV 522 = assay: MTS cell growth inhibition assay, MV 522; settings: MV522, MV 522, Lung; for inhibition at 200 µM: read-out: Mean Percent Response at 200 μM (percent of cell growth inhibited); for IC50: mean of 2 independent trials
Procedure: as §1, §2, §3

NIH: H23 = assay: MTS cell growth inhibition assay, NIH: H23; settings: NIH: H23, Lung; for inhibition at 200 µM: read-out: Mean Percent Response at 200 μM (percent of cell growth inhibited); for IC50: mean of 2 independent trials
Procedure: as §1, §2, §3

MDA-MB-231 = assay: MTS cell growth inhibition assay, MDA-MB-231; settings: Homo sapiens, MDA-MB-231, Breast; for inhibition at 200 µM: read-out: Mean Percent Response at 200 μM (percent of cell growth inhibited); for IC50: mean of 2 independent trials
Procedure: as §1, §2, §3

NIH: OVCAR-3 = assay: MTS cell growth inhibition assay, NIH: OVCAR-3; settings: Homo sapiens, NIH: OVCAR-3, Ovarian; for inhibition at 200 µM: read-out: Mean Percent Response at 200 μM (percent of cell growth inhibited); for IC50: mean of 2 independent trials
Procedure: as §1, §2, §3

HT-29 = assay: MTS cell growth inhibition assay, HT-29; settings: Homo sapiens, HT-29, Colon; for inhibition at 200 µM: read-out: Mean Percent Response at 200 μM (percent of cell growth inhibited); for IC50: mean of 2 independent trials
Procedure: as §1, §2, §3

SK-OV-3 = assay: MTS cell growth inhibition assay, SK-OV-3; settings: Homo sapiens, SK-OV-3, Ovarian; for inhibition at 200 µM: read-out: Mean Percent Response at 200 μM (percent of cell growth inhibited); for IC50: mean of 2 independent trials
Procedure: as §1, §2, §3

PC-3 = assay: MTS cell growth inhibition assay, PC-3; settings: Homo sapiens, PC-3, Prostrate; for inhibition at 200 µM: read-out: Mean Percent Response at 200 μM (percent of cell growth inhibited); for IC50: mean of 2 independent trials
Procedure: as §1, §2, §3

MCF-7 = assay: MTS cell growth inhibition assay, MCF-7; settings: Homo sapiens, MCF7, MCF-7, Breast; for inhibition at 200 µM: read-out: Mean Percent Response at 200 μM (percent of cell growth inhibited); for IC50: mean of 2 independent trials
Procedure: as §1, §2, §3

Row | SMILES | inhibition at 200 µM (Capan-2) [%] | IC50 (Capan-2) [µM] | inhibition at 200 µM (Capan-1) [%] | IC50 (Capan-1) [µM] | inhibition at 200 µM (MV 522) [%] | IC50 (MV 522) [µM] | inhibition at 200 µM (NIH: H23) [%] | IC50 (NIH: H23) [µM] | inhibition at 200 µM (MDA-MB-231) [%] | IC50 (MDA-MB-231) [µM] | inhibition at 200 µM (NIH: OVCAR-3) [%] | IC50 (NIH: OVCAR-3) [µM] | inhibition at 200 µM (HT-29) [%] | IC50 (HT-29) [µM] | inhibition at 200 µM (SK-OV-3) [%] | IC50 (SK-OV-3) [µM] | inhibition at 200 µM (PC-3) [%] | IC50 (PC-3) [µM] | inhibition at 200 µM (MCF-7) [%] | IC50 (MCF-7) [µM] | also measured
1 | COC[C@H]1C[C@@H]2[C@H](CC[C@]3(C)C(=O)CC[C@@H]23)[C@@]2(C)C=CC(=O)C=C12 [Exemestane 6S] | 15 | > 200 | 5 | > 200 | 19 | > 200 | 12 | > 200 | 21 | > 200 | 6 | > 200 | 8 | > 200 | 0.3 | > 200 | 0 | > 200 | 0 | > 200 | activity against cancer cell lines, in words [1]: works best against cell lines that are estrogen (−) and/or aromatase (+)
2 | C=C1C[C@@H]2[C@H](CC[C@]3(C)C(=O)CC[C@@H]23)[C@@]2(C)C=CC(=O)C=C12 [Exemestane, 6-methylenandrosta-1,4-diene-3,17-dione] | 56 | 94 | 74 | 98 | 79 | 103 | 81 | 50 | 67 | 64 | 88 | 73 | 75 | 103 | 85 | 78 | 67 | 105 | 68 | 96 | activity against cancer cell lines, in words [1]: marginal activity
3 | COC[C@@H]1C[C@@H]2[C@H](CC[C@]3(C)C(=O)CC[C@@H]23)[C@@]2(C)C=CC(=O)C=C12 [Exemestane 6R] | 46 | 104 | 28 | 176 | 96 | 95 | 65 | 106 | 95 | 77 | 78 | 54 | 80 | 110 | 98 | 106 | 78 | 108 | 56 | > 200 | inhibition at 200 µM ([1]; see Table 2, 200 μM, read-out: inhibition against a variety of cancer cell lines): 95 to 98%

Reference: patent US7846918B2, “Exemestane compounds, compositions and related methods of use” (Endece, LLC, priority 2005, dated 2010)
